Activity calls are given as the source filed them. No cut-off for these calls is given here.
Key:
[1] = biological target: Acetylcholinesterase (Homo sapiens) (UniProt P22303); test: Inhibition of human erythrocyte acetylcholinesterase using acetylthiocholine as substrate at 20 uM by Ellman's method relative to control
[2] = Antioxidant activity assessed as trolox equivalent of FRAP radical scavenging activity measured after 1 hrs by spectrophotometric analysis; assay type: functional
[3] = Antioxidant activity assessed as reduction in ABTS radical measured after 1 hrs by UV/Vis microplate spectrophotometric analysis; assay type: functional
[4] = biological target: Cholinesterase (Equus caballus) (UniProt P81908); test: Inhibition of equine serum butyrylcholinesterase using butyrylthiocholine as substrate at 20 uM by Ellman's method relative to control
[5] = Antioxidant activity assessed as ORAC radical scavenging activity by measuring fold change in trolox equivalent at 10 uM measured for 2 hrs by AAPH based fluorescence microplate reader relative to trolox; assay type: functional
[6] = Antioxidant activity assessed as trolox equivalent of ORAC radical scavenging activity at 10 uM measured for 2 hrs by AAPH based fluorescence microplate reader; assay type: functional
[7] = Antioxidant activity assessed as ABTS radical scavenging activity by measuring trolox equivalent antioxidant capacity after 1 hrs by UV/Vis microplate spectrophotometric analysis; assay type: functional
Liver carboxylesterase [8] = biological target: T1, Liver carboxylesterase (Sus scrofa, UniProt Q29550); test: Inhibition of porcine liver carboxylesterase using 4-nitrophenylacetate as substrate assessed as release of 4-nitrophenol at 20 uM by spectrophotometric analysis relative to control; settings: pig, porcine liver carboxylesterase (isolated enzyme), probe 4-nitrophenylacetate
T1 sequence (Q29550 whole entry): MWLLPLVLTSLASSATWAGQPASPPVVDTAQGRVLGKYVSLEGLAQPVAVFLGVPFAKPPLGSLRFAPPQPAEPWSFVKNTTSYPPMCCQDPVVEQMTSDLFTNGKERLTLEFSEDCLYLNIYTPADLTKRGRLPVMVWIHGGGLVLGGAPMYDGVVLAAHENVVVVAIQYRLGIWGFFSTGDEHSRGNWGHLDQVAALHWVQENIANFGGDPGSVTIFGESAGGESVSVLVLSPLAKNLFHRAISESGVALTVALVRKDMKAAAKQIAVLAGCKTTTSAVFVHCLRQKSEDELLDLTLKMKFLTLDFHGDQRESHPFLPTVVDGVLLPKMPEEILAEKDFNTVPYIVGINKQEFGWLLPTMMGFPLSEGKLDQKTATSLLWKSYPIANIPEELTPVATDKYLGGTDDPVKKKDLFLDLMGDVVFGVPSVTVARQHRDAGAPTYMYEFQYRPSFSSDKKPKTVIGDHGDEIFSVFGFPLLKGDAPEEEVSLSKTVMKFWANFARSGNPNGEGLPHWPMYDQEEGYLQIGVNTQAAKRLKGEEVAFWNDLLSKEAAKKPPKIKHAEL

Liver carboxylesterase [9] = biological target: T1, Liver carboxylesterase; test: Inhibition of porcine liver carboxylesterase using 4-nitrophenylacetate as substrate assessed as release of 4-nitrophenol by spectrophotometric analysis
[10] = Antioxidant activity against AAPH-induced oxidative stress in Sprague-Dawley rat erythrocytes assessed as membrane stabilizing activity by measuring hemolysis at 100 uM preincubated for 15 mins followed by AAPH addition and measured after 3 hrs by microplate reader analysis (reference value: 88.6 +/- 3.7%); assay type: functional, Erythrocyte; settings: time 195 min, 3.25 h
[11] = Hemolytic activity in AAPH-induced Sprague-Dawley rat erythrocytes assessed as hemolysis at 100 uM measured after 3 hrs by microplate reader analysis relative to control; assay type: toxicity, cell-based, Erythrocyte; settings: read-out: Activity
[12] = Antioxidant activity against AAPH-induced oxidative stress in Sprague-Dawley rat erythrocytes assessed as inhibition of lipid peroxidation by measuring fold change at 100 uM preincubated for 15 mins followed by AAPH addition and measured after 3 hrs by TBARS assay (reference value: 1); assay type: functional, Erythrocyte; settings: time 195 min, 3.25 h
[13] = Metal chelating activity assessed as Fe2+-compound complex formation by measuring absorbance at 400 uM measured after 30 mins in presence of FeCl2.4H2O by UV-Vis spectroscopic analysis (reference value: 253 to 384 nanometer)
[14] = Metal chelating activity assessed as Fe2+-compound complex formation by measuring absorbance at 400 uM measured after 30 mins in presence of FeCl2.4H2O by UV-Vis spectroscopic analysis (reference value: 225 to 374 nanometer)
Liver carboxylesterase 1 = biological target: T2, Liver carboxylesterase 1 (Homo sapiens, UniProt P23141); test: Inhibition of human CES1 using 4-nitrophenylacetate as substrate assessed as release of 4-nitrophenol by spectrophotometric analysis
T2 sequence (P23141 whole entry): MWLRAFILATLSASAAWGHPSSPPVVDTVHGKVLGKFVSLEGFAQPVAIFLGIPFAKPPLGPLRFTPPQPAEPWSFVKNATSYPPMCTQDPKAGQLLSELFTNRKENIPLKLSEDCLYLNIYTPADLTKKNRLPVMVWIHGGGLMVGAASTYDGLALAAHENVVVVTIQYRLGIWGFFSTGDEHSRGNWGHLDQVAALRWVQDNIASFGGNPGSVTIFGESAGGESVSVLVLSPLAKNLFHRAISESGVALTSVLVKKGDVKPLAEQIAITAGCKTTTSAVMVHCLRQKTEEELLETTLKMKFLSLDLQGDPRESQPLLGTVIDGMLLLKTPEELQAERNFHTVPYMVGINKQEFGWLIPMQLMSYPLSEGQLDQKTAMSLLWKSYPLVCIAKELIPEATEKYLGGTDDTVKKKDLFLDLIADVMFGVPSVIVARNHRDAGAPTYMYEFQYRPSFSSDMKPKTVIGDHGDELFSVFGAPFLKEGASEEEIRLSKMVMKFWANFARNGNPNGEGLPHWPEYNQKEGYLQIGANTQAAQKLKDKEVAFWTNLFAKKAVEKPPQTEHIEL

Cocaine esterase = biological target: T3, Cocaine esterase (Homo sapiens, UniProt O00748); test: Inhibition of human CES2 using 4-nitrophenylacetate as substrate assessed as release of 4-nitrophenol by spectrophotometric analysis
T3 sequence (O00748 whole entry): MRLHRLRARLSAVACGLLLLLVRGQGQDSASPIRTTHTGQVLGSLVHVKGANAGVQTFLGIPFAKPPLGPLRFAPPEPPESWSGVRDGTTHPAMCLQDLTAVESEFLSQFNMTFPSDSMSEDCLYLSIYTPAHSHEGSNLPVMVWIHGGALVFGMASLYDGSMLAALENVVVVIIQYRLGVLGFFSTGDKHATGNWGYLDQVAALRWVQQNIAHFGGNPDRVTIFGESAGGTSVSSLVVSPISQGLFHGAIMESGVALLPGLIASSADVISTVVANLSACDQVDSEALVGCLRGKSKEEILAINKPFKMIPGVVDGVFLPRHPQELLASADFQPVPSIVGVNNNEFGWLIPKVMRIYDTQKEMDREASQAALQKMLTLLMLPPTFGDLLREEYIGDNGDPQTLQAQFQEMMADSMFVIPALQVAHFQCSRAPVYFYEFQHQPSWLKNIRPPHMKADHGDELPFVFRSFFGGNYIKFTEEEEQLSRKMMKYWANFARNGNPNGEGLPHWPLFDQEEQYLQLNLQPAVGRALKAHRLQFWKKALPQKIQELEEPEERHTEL

Liver carboxylesterase [15] = biological target: T1, Liver carboxylesterase; test: Reversible mixed type inhibition of porcine liver carboxylesterase using 4-nitrophenylacetate as substrate assessed as inhibition constant of non-competitive component by Lineweaver-Burk plot analysis
Liver carboxylesterase [16] = biological target: T1, Liver carboxylesterase; test: Reversible mixed type inhibition of porcine liver carboxylesterase using 4-nitrophenylacetate as substrate assessed as inhibition constant of competitive component by Lineweaver-Burk plot analysis
[17] = Metal chelating activity assessed as Fe2+-compound complex formation by measuring absorbance at 400 uM measured after 30 mins in presence of FeCl2.4H2O by UV-Vis spectroscopic analysis (reference value: 245 to 373 nanometer)

Sequence of Acetylcholinesterase (Homo sapiens) (P22303 whole entry): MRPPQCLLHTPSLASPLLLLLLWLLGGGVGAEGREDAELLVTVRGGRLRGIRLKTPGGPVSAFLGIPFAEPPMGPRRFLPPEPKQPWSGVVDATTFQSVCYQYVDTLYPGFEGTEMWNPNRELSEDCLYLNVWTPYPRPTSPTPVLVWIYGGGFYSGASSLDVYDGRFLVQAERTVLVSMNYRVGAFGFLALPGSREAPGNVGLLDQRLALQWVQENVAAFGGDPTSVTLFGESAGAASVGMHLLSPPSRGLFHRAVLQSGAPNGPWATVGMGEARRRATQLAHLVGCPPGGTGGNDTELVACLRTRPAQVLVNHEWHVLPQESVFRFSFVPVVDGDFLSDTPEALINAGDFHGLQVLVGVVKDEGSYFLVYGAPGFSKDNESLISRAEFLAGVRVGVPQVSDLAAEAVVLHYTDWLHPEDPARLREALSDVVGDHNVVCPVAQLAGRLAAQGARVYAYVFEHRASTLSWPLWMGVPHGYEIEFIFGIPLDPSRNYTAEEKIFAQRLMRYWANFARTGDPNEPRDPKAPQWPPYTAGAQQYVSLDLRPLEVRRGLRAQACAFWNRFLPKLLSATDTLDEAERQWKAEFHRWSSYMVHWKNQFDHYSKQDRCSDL
Sequence of Cholinesterase (Equus caballus) (P81908 whole entry): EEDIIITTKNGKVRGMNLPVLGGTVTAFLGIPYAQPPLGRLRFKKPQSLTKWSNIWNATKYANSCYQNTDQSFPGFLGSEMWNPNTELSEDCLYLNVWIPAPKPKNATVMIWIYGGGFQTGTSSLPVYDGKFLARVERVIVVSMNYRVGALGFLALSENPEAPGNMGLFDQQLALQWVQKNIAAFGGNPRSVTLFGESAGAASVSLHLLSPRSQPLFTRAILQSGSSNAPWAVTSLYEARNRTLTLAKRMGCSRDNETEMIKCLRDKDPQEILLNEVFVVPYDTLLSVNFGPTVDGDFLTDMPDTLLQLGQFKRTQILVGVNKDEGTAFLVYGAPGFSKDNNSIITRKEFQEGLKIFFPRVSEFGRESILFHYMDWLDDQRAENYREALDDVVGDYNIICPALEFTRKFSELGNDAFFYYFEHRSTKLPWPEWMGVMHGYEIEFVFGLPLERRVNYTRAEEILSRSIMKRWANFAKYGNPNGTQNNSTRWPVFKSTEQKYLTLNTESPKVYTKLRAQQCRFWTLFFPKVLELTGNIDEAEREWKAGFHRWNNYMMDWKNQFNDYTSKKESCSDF

| Compound | inhibition [1] | Activity [2] | IC50 [3] [µM] | inhibition [4] | fold change (FC) [5] | Activity [6] | Activity [7] | IC50 (Liver carboxylesterase [9]) [µM] | also measured |
| --- | --- | --- | --- | --- | --- | --- | --- | --- | --- |
| Cc1ccc(N/N=C(\C(=O)O)C(=O)C(F)F)cc1 | 10.2% | 2.1 | 9.8 | inactive | > 3 | 3.13 | 1.67 | – | inhibition at 20 µM (Liver carboxylesterase [8]): 23.8% |
| COc1ccc(N/N=C(\C(=O)O)C(=O)C(F)(F)C(F)(F)C(F)(F)C(F)(F)F)cc1 | 4.4% | 1.68 | 9.5 | 19.9% | > 3 | 3.87 | 1.9 | 0.297 | – |
| CCOC(=O)c1ccc(N/N=C(\C(=O)O)C(=O)C(F)(F)F)cc1 | – | – | – | – | > 3 | – | – | – | – |
| CCOC(=O)c1ccccc1N/N=C(\C(=O)O)C(=O)C(F)(F)F | – | – | – | – | > 3 | – | – | – | – |
| COc1ccc(N/N=C(\C(=O)O)C(=O)C(F)(F)C(F)(F)C(F)(F)F)cc1 | 19.4% | 1.86 | 8.2 | 13.4% | > 3 | 3.67 | 2.1 | 0.096 | Activity [10]: 95.9%; hemolysis at 3 h, 100 µM [11]: 2%; fold change (FC) [12]: 0.63; Activity [13]: 271 nm |
| O=C(O)/C(=N\Nc1ccccc1)C(=O)C(F)(F)F | 16.5% | 1.48 | 8.6 | 4% | > 3 | 3.7 | 1.6 | 0.75 | – |
| CCOC(=O)c1ccc(N/N=C(/C(C)=O)C(=O)O)cc1 | inactive | 0.19 | 10.2 | inactive | – | 0.47 | 1.36 | – | inhibition at 20 µM (Liver carboxylesterase [8]): 16.1% |
| Cc1ccc(N/N=C(\C(=O)O)C(=O)C(F)(F)C(F)F)cc1 | inactive | 1.69 | 9.3 | 5.7% | > 3 | – | 1.7 | 5.58 | – |
| Cc1ccc(N/N=C(\C(=O)O)C(=O)C(F)(F)C(F)(F)F)cc1 | 10.2% | 1.71 | 9.9 | 15.5% | > 3 | 3.7 | 1.45 | 0.122 | – |
| O=[N+]([O-])c1ccc(OP(=O)(O)Oc2ccc([N+](=O)[O-])cc2)cc1 | inactive | – | – | inactive | – | – | – | – | – |
| CCOC(=O)c1ccccc1N/N=C(\C(=O)O)C(=O)C(F)(F)C(F)(F)C(F)(F)C(F)(F)F | 24% | – | – | 13.7% | > 3 | 1.7 | 0.02 | 0.14 | – |
| Cc1ccc(N/N=C(\C(=O)O)C(=O)C(F)(F)C(F)(F)C(F)(F)F)cc1 | 14.7% | 0.68 | 9.1 | 11.6% | > 3 | 3.27 | 1.97 | 0.047 | – |
| O=C(O)/C(=N\Nc1ccc([N+](=O)[O-])cc1)C(=O)C(F)(F)F | – | 0.24 | – | – | > 3 | – | – | – | – |
| CC(=O)/C(=N/Nc1ccccc1)C(=O)O | 4.7% | 0.79 | 9.8 | inactive | > 3 | 3.43 | 1.6 | – | inhibition at 20 µM (Liver carboxylesterase [8]): 17.9% |
| Cc1c(C)c2c(c(C)c1O)CCC(C)(C(=O)O)O2 (configuration not stated) [TROLOX] | – | 1 | 20.4 | – | – | 1 | 1 | – | Activity [10]: 56.7%; fold change (FC) [12]: 0.85 |
| COc1ccc(N/N=C(\C(=O)O)C(=O)C(F)(F)F)cc1 | – | 2.77 | – | – | > 3 | 3.6 | – | – | Activity [10]: 58.6%; hemolysis at 3 h, 100 µM [11]: 2%; Activity [14]: 267 nm; fold change (FC) [12]: 0.64 |
| CC(=O)/C(=N/Nc1ccc(C(=O)O)cc1)C(=O)O | 5.8% | 0.41 | 10.3 | 8.2% | > 3 | 2.2 | 1.25 | – | inhibition at 20 µM (Liver carboxylesterase [8]): 18.6% |
| CC(=O)/C(=N/Nc1ccc(C)cc1)C(=O)O | – | 1.69 | – | – | > 3 | 3.37 | – | – | – |
| Cc1ccc(N/N=C(\C(=O)O)C(=O)C(F)(F)F)cc1 | – | 2.63 | – | – | > 3 | 3.03 | – | – | IC50 (Liver carboxylesterase 1): 0.921 µM; IC50 (Cocaine esterase): 0.097 µM |
| Cc1ccc(N/N=C(\C(=O)O)C(=O)C(F)(F)C(F)(F)C(F)(F)C(F)(F)F)cc1 | 9.8% | 0.14 | 10.9 | inactive | > 3 | 3.2 | 1.37 | 0.042 | Ki (Liver carboxylesterase [15]): 0.027 µM; Ki (Liver carboxylesterase [16]): 0.018 µM; IC50 (Liver carboxylesterase 1): 0.102 µM; IC50 (Cocaine esterase): 0.109 µM |
| COc1ccc(N/N=C(\C(=O)O)C(=O)C(F)(F)C(F)F)cc1 | 4.2% | 1.9 | 10.2 | 3.5% | > 3 | 3.73 | 1.8 | 52.1 | – |
| COc1ccc(N/N=C(/C(C)=O)C(=O)O)cc1 | – | 2.5 | – | – | > 3 | 3.67 | – | – | Activity [10]: 45.6%; Activity [17]: 263 nm; hemolysis at 3 h, 100 µM [11]: 2%; fold change (FC) [12]: 0.24 |

From ChEMBL document CHEMBL6087406, “2-Arylhydrazinylidene-3-oxo-3-polyfluoroalkylpropanoic acids as selective and effective carboxylesterase inhibitors with powerful antioxidant potential” (Bioorg Med Chem, 2024)
